Measurements taken from patent publication US9682082B2, “Combinations of AKT and MEK inhibitor compounds, and methods of use” (GENENTECH, INC., priority 2011, dated 2017).

Tests used:
[1] = test system: A2058 (PTEN null/Braf mutant) melanoma model; assay: A2058 melanoma xenograft model, tumor growth inhibition; type: in vivo
Protocol: Methods of measuring TGI are known in the art. In one example method, average tumor volumes are determined and compared from the patient before and after treatment. Tumor volumes can be measured in two dimensions (length and width) using any method in the art, for example UltraCal IV calipers (Fred V. Fowler Company) or by PET (positron emission tomography), or by some other method. The formula tumor volume (mm^3)=(length×width^2)×0.5 can be used. Measuring tumor volumes over multiple time periods can be done using a mixed-modeling Linear Mixed Effects (LME) approach (Pinheiro et al. 2009). This approach can address both repeated measurements (and multiple patients). Cubic regression splines can be used to fit a non-linear profile to the time courses of tumor volume at each dose level. These non-linear profiles can then be related to dose within the mixed model. Tumor growth inhibition as a percent of vehicle can be calculated as a percent area under the fitted curve (AUC) per day in relation to the vehicle, using the following formula:
[formula] Using this formula, a TGI value of 100% indicates tumor stasis, greater than about 1% but less than about 100% indicates tumor growth inhibition, and greater than about 100% indicates tumor regression. Preparation of a Compound of Formula I
The efficacy of representative combinations of the invention were measured in vivo by implanting allografts or xenografts of cancer cells in rodents and treating the tumor-bearing animals with the combinations. Variable results are to be expected depending on the cell line, the presence or absence of certain mutations in the tumor cells, the sequence of administration the compounds, dosing regimen, and other factors. Subject mice were treated with drug(s) or control (Vehicle) and monitored over several weeks or more to measure the time to tumor doubling, log cell kill, and tumor inhibition.

MALME3M cells = assay: Cell viability assay (CellTiter-Glo), MALME3M; type: cell-based, human; settings: MALME3M B-RAF V600E metastatic melanoma cell line
Protocol: (§1) Cells were plated in black, clear-bottomed 384-well plates (Catalog 353962; Becton Dickinson; Franklin Lakes, N.J.) at a density of 1500 cells/well and incubated overnight to 1.5 days at 37° C., 5% CO2. Serial dilutions of GDC-0068, GDC-0973, or both in combination were then added to the cells and incubated for another 96 hours. Cell viability was determined by measuring the cellular adenosine triphosphate (ATP) levels as described in the manufacturer's protocol (CellTiter-Glo Luminescent Cell Viability Assay kit; Catalog G7573; Promega, Madison, Wis.). Luminescence signal was recorded on an EnVision 2101 Multilabel Reader (PerkinElmer; Waltham, Mass.).
(§2) Percentage inhibition was calculated by dividing the relative light unit (RLU) of cells exposed to the GDC-0068 and GCD-0973 combination to the RLU of cells exposed to DMSO and subtracting it from 1, as expressed below: % inhibition=1−(RLUcombination/RLUDMSO)
(§3) BLISS analysis compared the expected % inhibition (E=EGDC-0068+EGDC-0973−EGDC-0068×EGDC-0973) with the experimentally observed % inhibition, EOBS. The BLISS score is the difference (ΔE=EOBS−E) between the expected % inhibition, E, and the experimentally observed inhibition, EOBS.

MALME3 cells = assay: Cell viability assay (CellTiter-Glo), MALME3; type: cell-based, human; settings: MALME3 normal skin fibroblasts
Protocol: as §1, §2, §3

## CC(C)NC[C@@H](C(=O)N1CCN(c2ncnc3c2[C@H](C)C[C@H]3O)CC1)c1ccc(Cl)cc1 [GDC-0068, (S)-2-(4-chlorophenyl)-1-(4-((5R,7R)-7-hydroxy-5-methyl-6,7-dihydro-5H-cyclopenta[d]pyrimidin-4-yl)piperazin-1-yl)-3-(isopropylamino)propan-1-one]
[1]; 50 mg/kg of GDC-0068
  single agent tumor growth inhibition (TGI): No TGI
[1]; higher doses of GDC-0068 (75 and 100 mg/kg)
  single agent tumor growth inhibition (TGI): Comparable single agent tumor growth inhibition (TGI)
MALME3M cells
  single agent effect on cell viability: lack of single agent activity

## O=C(c1ccc(F)c(F)c1Nc1ccc(I)cc1F)N1CC(O)([C@@H]2CCCCN2)C1 [GDC-0973, (S)-(3,4-difluoro-2-(2-fluoro-4-iodophenylamino)phenyl)(3-hydroxy-3-(piperidin-2-yl)azetidin-1-yl)methanone]
[1]; all doses of GDC-0973
  single agent tumor growth inhibition (TGI): Comparable single agent tumor growth inhibition (TGI)
MALME3M cells
  single agent effect on cell viability: sensitivity
MALME3 cells
  single agent effect on cell viability: resistant
